{"source": "paper PMC8147984", "about": "“Effects of Sponge-Derived Alkaloids on Activities of the Bacterial α-D-Galactosidase and Human Cancer Cell α-N-Acetylgalactosaminidase” (Biomedicines, 2021)", "key": {"[1]": {"test_system": "α-NaGalase in human colorectal adenocarcinoma cell line DLD-1", "experiment": "Residual α-NaGalase activity (expression) in lysate of DLD-1 cells treated with alkaloids", "type": "cell-based", "settings": "DLD-1 cells treated with 5 μM for 24 h", "protocol": "DLD-1cells (5.0 × 10^5) were seeded in […] for 24 h at 37 °C in a 5% CO2 incubator. Then the cells were treated with compounds 1–9 at concentrations ranging from 0 to 20 μM for an additional 24 h. Then the cells were harvested using 0.02% EDTA, after this 3 mL of cold 15 mM Tris–HCl (pH 7.0) was added.\nEvery 3–4 days cells were rinsed in phosphate buffered PBS, detached from the tissue culture flask by 1× trypsin/EDTA solution, harvested with RPMI-1640 medium and centrifuge at 500 rpm for 3 min. The culture media was discarded and cells pellet was resuspended in EDTA/Tris solution and frozen at −80 °C.\nFrozen lysates of cancer cells in the 15 mM Tris buffer, pH 7.0 containing 0.02% EDTA, defrosted and sonicated 10 times during 1 min with a break of 1 min. To remove the cellular detritus, the cell homogenate was centrifuged at 4 °C, 10,000 rpm, 30 min. The supernatant proteins were precipitated with 35% ammonium sulfate, kept during four hours at 4 °C to form a pellet. The protein pellet was collected by centrifugation (4 °C, 10,000 rpm, 30 min) and dissolved in 0.05 M sodium citrate buffer, pH 5.0. The supernatant proteins were precipitated with 75% ammonium sulfate, kept overnight at 4 °C to form a pellet. The protein pellet was collected by centrifugation (4 °C, 10,000 rev/min, 30 min) and dissolved in 0.05 M sodium citrate buffer, pH 5.0. Both extracts were dialyzed against the same buffer, centrifuged to separate the insoluble precipitate. α-NaGalase activity was tested in both extracts and was found only in the protein fraction precipitated with 75% ammonium sulfate. This supernatant was used in further work as partly purified enzyme. The purification quality was controlled by 12% Laemmli-SDS-PAGE-electrophoresis.\nThe activity of α-PsGal and α-NaGalase were determined by increasing the amount of p-nithrophenol (pNP). To assay the α-NaGalase activity 0.05 mL of cell extract and 0.1 mL of substrate pNPNA-α-Gal (8.8 mM) in 0.05 M sodium citrate buffer, pH 5.0 were placed in cells of 96-well plate and incubated at 37 °C for 30 min. The mixtures containing 0.05 mL of an enzyme solution and 0.1 mL of a substrate solution (3.3 mM) in 0.05 M sodium phosphate buffer (pH 7.0) were incubated at 20 °C during 5 min for determination of α-PsGal standard activity. […]\nAbsorbance was measured at 400 nm. Results were read with a computer program Gen5 and treated with ExCel computer program. […] Specific activity (A) was calculated as the enzyme activity (U) per 1 mg of protein. […] Residual activity (%) was calculated with formula: Residual activity (%) = v/v0 ×100, where v is the initial reaction rate of enzymes under the action of an inhibitor or other factors, v0 is the initial reaction rate of enzymes in the absence of the influence of any factors. […]"}, "[2]": {"molecular_target": "T1, α-D-galactosidase (α-PsGal) (Pseudoalteromonas sp. KMM 701, UniProt Q19AX0)", "T1 sequence (Q19AX0 1-710)": "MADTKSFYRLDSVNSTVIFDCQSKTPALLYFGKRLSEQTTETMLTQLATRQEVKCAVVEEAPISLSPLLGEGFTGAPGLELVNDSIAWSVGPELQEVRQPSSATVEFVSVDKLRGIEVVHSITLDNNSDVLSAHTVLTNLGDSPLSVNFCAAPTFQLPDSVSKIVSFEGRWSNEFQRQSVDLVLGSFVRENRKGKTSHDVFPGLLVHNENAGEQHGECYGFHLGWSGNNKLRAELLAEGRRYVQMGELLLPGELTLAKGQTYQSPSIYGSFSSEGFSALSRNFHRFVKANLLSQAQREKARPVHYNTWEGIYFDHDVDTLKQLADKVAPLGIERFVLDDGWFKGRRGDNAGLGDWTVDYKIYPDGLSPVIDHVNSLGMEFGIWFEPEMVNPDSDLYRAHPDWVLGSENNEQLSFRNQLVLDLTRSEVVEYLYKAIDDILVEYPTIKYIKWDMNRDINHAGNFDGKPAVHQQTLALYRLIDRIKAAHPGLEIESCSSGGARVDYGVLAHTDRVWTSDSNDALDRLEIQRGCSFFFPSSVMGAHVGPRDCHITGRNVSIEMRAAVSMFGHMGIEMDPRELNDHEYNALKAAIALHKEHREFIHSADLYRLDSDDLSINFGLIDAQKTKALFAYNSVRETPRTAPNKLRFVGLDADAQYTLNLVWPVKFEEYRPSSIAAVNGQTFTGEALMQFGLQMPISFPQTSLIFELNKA", "experiment": "Inhibitory potency on recombinant α-PsGal (residual activity)", "type": "biochemical", "settings": "compound concentration 1.67 mM; preincubated 30 min, 20 °C, pH 7.0", "protocol": "The recombinant wild-type α-D-galactosidase (α-PsGal) was produced as described earlier. The plasmid DNA pET-40b(+) containing insertion of the gene from the marine bacterium Pseudoalteromonas sp. KMM 701 encoding α-PsGal was transformed in the Escherichia coli strain Rosetta (DE3). Heterological expression was carried out at optimal conditions as described earlier. Purification of the recombinant […] was performed, according to described procedures. The purification quality was controlled by 12% Laemmli-SDS-PAGE-electrophoresis.\nThe activity of α-PsGal and α-NaGalase were determined by increasing the amount of p-nithrophenol (pNP). To assay the α-NaGalase activity 0.05 mL of cell extract and 0.1 mL of substrate pNPNA-α-Gal (8.8 mM) in 0.05 M sodium citrate buffer, pH 5.0 were placed in cells of 96-well plate and incubated at 37 °C for 30 min. The mixtures containing 0.05 mL of an enzyme solution and 0.1 mL of a substrate solution (3.3 mM) in 0.05 M sodium phosphate buffer (pH 7.0) were incubated at 20 °C during 5 min for determination of α-PsGal standard activity. The reactions were stopped by the addition of 0.15 mL of 1 M Na2CO3 solution.\nAbsorbance was measured at 400 nm. Results were read with a computer program Gen5 and treated with ExCel computer program. The unit of standard activity (U) was defined as the amount of the enzyme catalyzing the formation of 1 µmol of p-nitrophenol (ε400 = 18,300 M^−1 cm^−1) per 1 min under the conditions indicated. Specific activity (A) was calculated as the enzyme activity (U) per 1 mg of protein. All calculations were based on reactions with consumption of 10% of the chromogenic substrate. The protein concentrations were estimated by the Bradford method with BSA as a standard. Residual activity (%) was calculated with formula: Residual activity (%) = v/v0 ×100, where v is the initial reaction rate of enzymes under the action of an inhibitor or other factors, v0 is the initial reaction rate of enzymes in the absence of the influence of any factors. Buffer solutions of α-PsGal (0.1 U/mL) and α-NaGalase (0.01 U/mL) were used in the further experiments.\nIn the control sample, 5 μL of water or 2 μL of EtOH were added to 25 μL of enzyme solution. The enzyme reaction was initiated by adding 120 μL of the substrate pNP-α-Gal (3.3 mM) for α-PsGal or pNPNA-α-Gal (8.8 mM) for α-NaGalase in the respective buffer solutions. After 10 min for α-PsGal or 60 min for α-NaGalase the reaction was stopped by adding 150 μL of 1 M Na2CO3. The amount of pNP was quantified by spectrophotometric detection at 400 nm. Results were evaluated as the percent of residual activity as described above."}}}
{"smiles": "COc1cc2ccnc3c2c(c1O)NC=C3", "note": "[Compound 3, 9-demethylaaptamine]", "values": [{"measurement": "expression of the enzyme α-NaGalase (residual activity of lysate cell α-NaGalase, control 100%)", "setting": "[1]", "value": 57, "unit": "%"}, {"measurement": "Residual activity v/v0 (%) of the α-PsGal", "setting": "[2]", "value": "0 ^1%"}]}
{"smiles": "COc1cc2ccnc3c2c(c1O)N(C)C=C3", "note": "[Compound 2, isoaaptamine]", "values": [{"measurement": "expression of the enzyme α-NaGalase (residual activity of lysate cell α-NaGalase, control 100%)", "setting": "[1]", "value": 64, "unit": "%"}, {"measurement": "Residual activity v/v0 (%) of the α-PsGal", "setting": "[2]", "value": "0 ^1%"}]}
